In patent US7396849B2, “4-(Condensed cyclicmethyl)-imidazole-2-thiones acting as α2 adrenergic agonists” (Allergan, Inc., priority 2004, dated 2008):

Columns and labels:
Assay type in all cases: cell-based
Conditions in all cases: NIH-3T3 cells, ratio of maximal effect to that of standard full agonist brimonidine, NA = not active below 10 micromolar
[1] = biological target: T1, alpha2B adrenergic receptors (Homo sapiens, UniProt P18089); assay: RSAT assay (Receptor Selection and Amplification Technology), alpha2B
T1 construct: expressed in transfected cells; host or cells: NIH-3T3 cells
T1 sequence (P18089 1-450): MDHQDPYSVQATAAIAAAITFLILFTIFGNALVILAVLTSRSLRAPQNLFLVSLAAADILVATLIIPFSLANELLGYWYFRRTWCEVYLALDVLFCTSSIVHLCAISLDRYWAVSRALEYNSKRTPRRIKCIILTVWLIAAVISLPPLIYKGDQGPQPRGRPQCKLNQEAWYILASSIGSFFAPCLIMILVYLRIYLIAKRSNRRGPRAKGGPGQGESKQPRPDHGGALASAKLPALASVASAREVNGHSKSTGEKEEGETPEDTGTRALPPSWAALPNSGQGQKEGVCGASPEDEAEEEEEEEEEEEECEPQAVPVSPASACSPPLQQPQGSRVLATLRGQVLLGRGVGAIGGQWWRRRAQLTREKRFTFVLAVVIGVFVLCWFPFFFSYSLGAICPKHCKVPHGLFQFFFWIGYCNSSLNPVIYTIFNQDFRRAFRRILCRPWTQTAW
From the text: (§1) The imidazole-2-thione compounds of the invention are agonists of alpha2 adrenergic receptors. Many compounds of the invention are specific or selective agonists of alpha2B and/or to a lesser extent alpha2C adrenergic receptors, in preference over alpha2A adrenergic receptors. […] 76, pp. 308-311 (incorporated herein by reference) and is also described below. Another reference pertinent to this assay is Conklin et al. (1993) Nature 363:274-6, Receptor Selection and Amplification Technology (RSAT) assay, also incorporated herein by reference.
(§2) The RSAT assay measures a receptor-mediated loss of contact inhibition that results in selective proliferation of receptor-containing cells in a mixed population of confluent cells. The increase in cell number is assessed with an appropriate transfected marker gene such as β-galactosidase, the activity of which can be easily measured in a 96-well format. Receptors that activate the G protein, Gq, elicit this response. Alpha2 receptors, which normally couple to Gi, activate the RSAT response when coexpressed with a hybrid Gq protein that has a Gi receptor recognition domain, called Gq/i5.
(§3) NIH-3T3 cells are plated at a density of 2×10^6 cells in 15 cm dishes and maintained in Dulbecco's modified Eagle's medium supplemented with 10% calf serum. One day later, cells are cotransfected by calcium phosphate precipitation with mammalian expression plasmids encoding p-SV-β-galactosidase (5-10 μg), receptor (1-2 μg) and G protein (1-2 μg). 40 μg salmon sperm DNA may also be included in the transfection mixture. Fresh media is added on the following day and 1-2 days later, cells are harvested and frozen in 50 assay aliquots. Cells are thawed and 100 μl added to 100 μl aliquots of various concentrations of drugs in triplicate in 96-well dishes. Incubations continue 72-96 hr at 37° C. After washing with phosphate-buffered saline, β-galactosidase enzyme activity is determined by adding 200 μl of the chromogenic substrate (consisting of 3.5 mM o-nitrophenyl-β-D-galactopyranoside and 0.5% nonidet P-40 in phosphate buffered saline), incubating overnight at 30° C. and measuring optical density at 420 nm. The absorbance is a measure of enzyme activity, which depends on cell number and reflects a receptor-mediated cell proliferation. The efficacy or intrinsic activity is calculated as a ratio of the maximal effect of the drug to the maximal effect of a standard full agonist for each receptor subtype. Brimonidine, also called UK14304, the chemical structure of which is shown below, is used as the standard agonist for the alpha2A, alpha2B and alpha2C receptors.
(§4) The results of the RSAT assay with several exemplary compounds of the invention are disclosed in Table 1 above together with the chemical formulas of these examplary compounds. NA stands for “not active” at cohcentrations less than 10 micromolar.

[2] = biological target: T2, alpha2A adrenergic receptors (Homo sapiens, UniProt P08913); assay: RSAT assay (Receptor Selection and Amplification Technology), alpha2A
T2 construct: expressed in transfected cells; host or cells: NIH-3T3 cells
T2 sequence (P08913 1-465): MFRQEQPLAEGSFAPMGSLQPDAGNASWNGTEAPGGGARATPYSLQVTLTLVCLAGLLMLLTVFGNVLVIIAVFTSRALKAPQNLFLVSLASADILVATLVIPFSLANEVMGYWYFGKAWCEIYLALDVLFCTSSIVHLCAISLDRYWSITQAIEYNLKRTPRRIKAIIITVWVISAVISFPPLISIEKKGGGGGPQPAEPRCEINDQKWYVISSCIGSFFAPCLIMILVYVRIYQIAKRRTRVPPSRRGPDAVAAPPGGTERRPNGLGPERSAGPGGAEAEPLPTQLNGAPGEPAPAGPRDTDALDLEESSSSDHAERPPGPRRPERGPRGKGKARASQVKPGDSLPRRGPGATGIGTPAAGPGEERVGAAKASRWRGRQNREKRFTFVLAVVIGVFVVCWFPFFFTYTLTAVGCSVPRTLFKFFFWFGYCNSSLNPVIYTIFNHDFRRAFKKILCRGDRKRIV
From the text: as §1, §2, §3, §4

[3] = biological target: T3, alpha2C adrenergic receptors (Homo sapiens, UniProt P18825); assay: RSAT assay (Receptor Selection and Amplification Technology), alpha2C
T3 construct: expressed in transfected cells; host or cells: NIH-3T3 cells
T3 sequence (P18825 1-462): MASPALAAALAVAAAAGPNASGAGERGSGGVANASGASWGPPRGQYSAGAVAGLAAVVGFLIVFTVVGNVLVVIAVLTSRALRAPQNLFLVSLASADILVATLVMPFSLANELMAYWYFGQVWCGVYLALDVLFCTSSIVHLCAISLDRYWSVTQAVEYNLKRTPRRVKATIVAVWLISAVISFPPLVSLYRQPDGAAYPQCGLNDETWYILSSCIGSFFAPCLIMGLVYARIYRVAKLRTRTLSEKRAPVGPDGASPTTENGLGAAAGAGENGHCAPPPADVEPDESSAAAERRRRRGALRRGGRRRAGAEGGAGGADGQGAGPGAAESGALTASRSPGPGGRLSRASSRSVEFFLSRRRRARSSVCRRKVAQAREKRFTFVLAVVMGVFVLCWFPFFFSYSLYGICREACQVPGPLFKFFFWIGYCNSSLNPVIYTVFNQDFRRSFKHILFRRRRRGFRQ
From the text: as §1, §2, §3, §4

Compound | Intrinsic Activity Alpha 2B [1] | Intrinsic Activity Alpha 2A [2] | Intrinsic Activity Alpha 2C [3]
CC(c1c[nH]c(=S)[nH]1)c1cccc2ncccc12 (single isomer, unassigned; (+)) [Compound 14, (+)-4-(1-quinolin-5-yl-ethyl)-1,3-dihydro-imidazole-2-thione] | 0.86 |  | 
S=c1[nH]cc(Cc2cccc3c2OCCO3)[nH]1 [Compound 1, 4-(2,3-dihydro-benzo[1,4]dioxin-5-ylmethyl)-1,3-dihydro-imidazole-2-thione] | 0.94 | 0.44 | 0.56
CC(c1c[nH]c(=S)[nH]1)c1cccc2c1OCCO2 (stereo not drawn) [Compound 2, 4-[1-(2,3-dihydro-benzo[1,4]dioxin-5-yl)-ethyl]-1,3-dihydro-imidazole-2-thione] | 1.38 | 0.45 | 0.48
CC(c1c[nH]c(=S)[nH]1)c1cccc2c1OCO2 (stereo not drawn) [Compound 3, 4-(1-benzo[1,3]dioxol-4-yl-ethyl)-1,3-dihydro-imidazole-2-thione] | 0.97 | 0.56 | 0.77
CC(c1c[nH]c(=S)[nH]1)c1cccc2cccnc12 (stereo not drawn) [Compound 4, 4-(1-quinolin-8-yl-ethyl)-1,3-dihydro-imidazole-2-thione] | 1.03 | 0.80 | 0.62
S=c1[nH]cc(Cc2ccc3c(c2)OCO3)[nH]1 [Compound 5, 4-benzo[1,3]dioxol-5-ylmethyl-1,3-dihydro-imidazole-2-thione] | 1.05 |  | 
S=c1[nH]cc(Cc2cccc3ccccc23)[nH]1 [Compound 6, 4-naphthalen-1-ylmethyl-1,3-dihydro-imidazole-2-thione] | 0.73 | 0.48 | 0.55
S=c1[nH]cc(Cc2cccc3cccnc23)[nH]1 [Compound 8, 4-quinolin-8-ylmethyl-1,3-dihydro-imidazole-2-thione] | 1.01 | 0.93 | 0.75
S=c1[nH]cc(Cc2cccc3ncccc23)[nH]1 [Compound 9, 4-quinolin-5-ylmethyl-1,3-dihydro-imidazole-2-thione] | 0.74 |  | 
CC(c1c[nH]c(=S)[nH]1)c1cccc2ccccc12 (stereo not drawn) [Compound 10, 4-(1-naphthalen-1-yl-ethyl)-1,3-dihydro-imidazole-2-thione] | 1.21 | 0.52 | 
S=c1[nH]cc(Cc2ccc3ccccc3c2)[nH]1 [Compound 11, 4-naphthalen-2-ylmethyl-1,3-dihydro-imidazole-2-thione] | 0.94 |  | 
CC(c1ccc2c(c1)OCCO2)c1c[nH]c(=S)[nH]1 (stereo not drawn) [Compound 12, 4-[1-(2,3-dihydro-benzo[1,4]dioxin-6-yl)-ethyl]-1,3-dihydro-imidazole-2-thione] | 1.15 | 0.54 | 
S=c1[nH]cc(Cc2ccc3c(c2)CCCS3)[nH]1 [Compound 13, 4-thiochroman-6-ylmethyl-1,3-dihydro-imidazole-2-thione] | 0.95 |  | 
S=c1[nH]cc(Cc2cccc3nsnc23)[nH]1 [Compound-16, 4-benzo[1,2,5]thiadiazol-4-ylmethyl-1,3-dihydro-imidazole-2-thione] | 1.22 |  | 0.69
CC(c1c[nH]c(=S)[nH]1)c1cccc2nsnc12 (stereo not drawn) [Compound-17, 4-(1-benzo[1,2,5]thiadiazol-4-yl-ethyl)-1,3-dihydro-imidazole-2-thione] | 0.98 |  | 
